Assays:
[1] = molecular target: T1, main protease (M^pro) of SARS-COV-2 (Severe acute respiratory syndrome coronavirus 2, UniProt P0DTD1); assay: TEM observation of the reaction of MCAP-AuNP with M^pro after M^pro inhibitor treatment; format: biochemical; details: TEM images, FIG. 10B-10D
[2] = molecular target: T1, main protease (M^pro) of SARS-COV-2; assay: biochemical

Q: Which “activity of M^pro after M^pro inhibitor treatment (effect on MCAP-AuNP, TEM image)” value [1] does the source give for `COc1ccc([C@@H]2CC(=O)c3c(O)cc(O)cc3O2)cc1O` [hesperetin] here?
A: The value was “inhibited”.

Q: And the IC50 [2]?
A: The IC50 was 43.1 µM.

Q: `CC(=O)N[C@@H](CC(C)C)C(=O)N[C@@H](CC(C)C)C(=O)N[C@H](C=O)CCCNC(=N)N` [leupeptin] was tested. Which “activity of M^pro after M^pro inhibitor treatment (effect on MCAP-AuNP, TEM image)” value [1] did it give?
A: The value was “inhibited”.

Q: What about the IC50 [2] of the same compound?
A: The IC50 was 28.6 µM.

Q: How did the “activity of M^pro after M^pro inhibitor treatment (effect on MCAP-AuNP, TEM image)” value [1] turn out when `Cc1cccc(C)c1OCC(=O)N[C@@H](Cc1ccccc1)[C@@H](O)C[C@H](Cc1ccccc1)NC(=O)[C@H](C(C)C)N1CCCNC1=O` [lopinavir] was run?
A: Its value is “inhibited”.

Q: What about the IC50 [2] of the same compound?
A: The IC50 was 10.7 µM.
